Assay: xn = mol fraction of the nth substance listed
Conditions: 100 kPa, x2 = 0

speed of sound (293.15 K): 1484.1 m/s
viscosity (293.15 K): 0.867 mPa·s
speed of sound (298.15 K): 1468.9 m/s
viscosity (298.15 K): 0.813 mPa·s
speed of sound (303.15 K): 1447.2 m/s
viscosity (303.15 K): 0.764 mPa·s
speed of sound (313.15 K): 1410.2 m/s
viscosity (313.15 K): 0.684 mPa·s
speed of sound (318.15 K): 1391.2 m/s
viscosity (318.15 K): 0.663 mPa·s
SMILES: CN(C)C=O + CCCC[P+](C)(CCCC)CCCC.COS(=O)(=O)[O-]
